Assay results reported in patent publication US4067142A, “Echinatin glycosides and their preparation” (Kabushiki Kaisha Hayashibara Seibutsu Kagaku Kenkyujo, priority 1975, dated 1978).
In brackets after ≈: the same amount, converted by molar mass.

Assays:
[1] = water solubility at 15° C; assay type: physicochemical; conditions: for solubility: water
[2] = system: human lymphoblastoid cells (E.B. -3 cells, Burkitt lymphoma); assay: inhibiting action on the growth of human lymphoblastoid cells (E.B.-3, Burkitt lymphoma) in suspension culture, cell count; assay type: cell-based; conditions: 100 μg per ml medium, added on the fourth day of cultivation; R.P.M.I. 1640 + 30% fetal calf serum, 37° C; vs non-added culture
Protocol: Human lymphoblastoid cells (E.B. -3 cells, Burkitt lymphoma) were grown in suspension culture and maintained in 2 ml R.P.M.I. 1640 medium (manufactured by Flow Laboratories Inc., U.S.A.) supplemented with 30% fetal calf serum, placed in Petri's dish, diameter 20 mm at a temperature of 37° C.
The numbers of human lymphoblastoid cells were counted according to the method used for counting the numbers of leucocyte with Burke's blood count platelet.

[3] = 15° C, parts or percentages by weight

Compound	solubility [1, 3]	water solubility, in words ([1]; temperature not stated)	water solubility [1, 3]	inhibiting action on the growth of human lymphoblastoid cells [2]
COc1cc(O[C@@H]2O[C@H](CO)[C@@H](O)[C@H](O)[C@H]2O)ccc1/C=C/C(=O)c1ccc(O[C@@H]2O[C@H](CO)[C@@H](O)[C@H](O)[C@H]2O)cc1 [echinatin-4,4'-diglucoside]	~5000 µg/mL (≈ 8410 µM)	–	–	–
COc1cc(O[C@@H]2O[C@H](CO)[C@@H](O)[C@H](O)[C@H]2O)ccc1/C=C/C(=O)c1ccc(O)cc1 [echinatin-4-glucoside]	~1000 µg/mL (≈ 2310 µM)	–	–	–
COc1cc(O)ccc1/C=C/C(=O)c1ccc(O)cc1 [echinatin]	< 1 µg/mL	extremely low water solubility	–	–
echinatin-4'-glucoside	–	–	approximately 1%	possesses an inhibiting action on the growth of human lymphoblastoid cells
